The assay relates to AMPA receptor. In words: Binding of 3H-AMPA to rat cerebra membranes. The following applies: for activity compared with the substance of Example 56 in EP 572,852 and compound 16: 3H-AMPA binding; for Ki: displacement of 3H-AMPA, isolated membrane material from rat cerebra. The method, then:
The pharmacological activity of the compounds I was investigated in isolated membrane material from rat cerebra. For this purpose, the membrane material was treated in the presence of the compounds according to the invention with the radiolabeled substances ^3 H-2-amino-3-hydroxy-5-methyl-4-isoxazolepropionic acid (^3 H-AMPA) [^3 H]-glycine or [^3 H]-kainate, these binding to specific receptors (AMPA, NMDA or kainate receptors). Subsequently, the radioactivity of the treated membranes was measured by scintillation counting. It was possible to determine from the bound radioactivity the amounts of bound ^3 H-AMPA, [^3 H]-glycine or [^3 H]-kainate, or in each case the amounts of these radiolabeled substances displaced. The dissociation constant KI (I=inhibitor) derived from this is a measure of the displacing action of the agent according to the invention and was found by iterative non-linear regression analysis using the statistical analysis system (SAS) on an IBM computer, similar to the "Ligand" program of P. J. Munson and D. Rodbard (Analytical Biochem. 107, 220 (1980), Ligand: Versatile Computerized Approach for Characterization of Ligand Binding Systems).
1. Binding of ^3 H-2-amino-3-hydroxy-5-methyl-4-isoxazolepropionic acid (^3 H-AMPA)
To prepare the membrane material, freshly removed rat cerebra were homogenized together with 15 times the volume of a buffer solution A comprising 30 mM α,α,α-tris(hydroxymethyl)methylamine hydrochloride (TRIS-HCl) and 0.5 mM ethylenediaminetetraacetic acid (EDTA), pH 7.4, using an Ultra-Turrax®. The suspension was centrifuged at 48,000 g for 20 min. After removal of the supernatant liquid, the protein-containing membrane material contained in the sediment was washed three times by suspension in buffer solution A and subsequent centrifugation at 48,000 g for 20 minutes each time. The membrane material was then suspended in 15 times the volume of buffer solution A and incubated at 37° C. for 30 min. The protein material was subsequently washed twice by centrifugation and suspension and stored at -70° C. until used.
For the binding assay, the protein material was thawed at 37° C. and washed twice by centrifugation at 48,000 g (20 min) and subsequent suspension in a buffer solution B comprising 50 mM TRIS-HCl, 0.1M potassium thiocyanate and 2.5 mM calcium chloride, pH 7.1. Subsequently, 0.25 mg of membrane material, 0.1 μCi of ^3 H-AMPA (60 Ci/mmol) and compound I were dissolved in 1 ml of buffer solution B and incubated on ice for 60 min. The incubated solution was filtered through a CF/B filter (from Whatman) which had previously been treated with a 0.5% strength aqueous solution of polyethyleneimine for at least 2 hours. The membrane residue was subsequently washed with 5 ml of cold buffer solution B in order to separate bound and free ^3 H-AMPA from one another. After measurement of the radioactivity of the bound ^3 H-AMPA in the membrane material by scintillation counting, the KI was determined by regression analysis of the displacement plots.
(Loss of bound radioactivity is the signal in a displacement assay; it reports binding, not function.)

For the compound `O=C(Nn1c(=O)c(=O)[nH]c2cc(C(F)(F)F)c(-n3cccc3)cc21)c1ccccc1` [Example 29, 1-Benzamido-7-(1-pyrrolyl)-6-trifluoromethylquinoxaline-2,3-(1H,4H)-dione], the Ki (usually a dissociation constant, usually derived from enzyme kinetics or from competition with a known ligand) is < 10 µM. In addition, the “activity compared with the substance of Example 56 in EP 572,852 and compound 16” value (comparison in words) is “more active”. In addition, the “activity compared with 1-carbamoyl-7-pyrrolylquinoxalinedione (Example 56 in EP 572,852)” value (comparison in words, test not named) was “distinctly more active”.
As for `O=C(Nn1c(=O)c(=O)[nH]c2cc(C(F)(F)F)ccc21)c1ccccc1` [Example 1, 1-Benzamido-6-trifluoromethylquinoxaline-2,3(1H,4H)-dione], the Ki was < 10 µM. Besides, the “activity compared with the substance of Example 56 in EP 572,852 and compound 16” value (comparison in words) is “more active”.

For the origin of these results see patent publication US5773439A, “Amido-quinoxalinediones, the preparation and use thereof” (BASF Aktiengesellschaft, priority 1994, dated 1998).
